From patent US9023850B2, “Nematocidal sulfonamides” (E I du Pont de Nemours and Company, priority 2010, dated 2015)

tested on: cucumber seedlings; experiment: Test A: phytotoxicity to the cucumber seedlings of the test units; assay type: in vivo; settings: 250 ppm active ingredient applied to soil, 7 days
Procedure: Control of the southern root-knot nematode (Meloidogyne incognita) through contact and/or systemic means was evaluated in test units consisting of small open containers filled with a sandy soil mixture and cucumber seedlings. Test compounds were formulated using a solution containing 50% acetone and 50% water. Test compounds were applied directly to the soil of the test units at a concentration of 250 ppm active ingredient. Each test was replicated 3 times. After treatment, the test units were allowed to dry for 1 hour, after which time about 250 second-stage juvenile (J2) larvae were pipetted into the soil. The test units were held at 27° C. and watered as needed for 7 days. Nematocidal efficacy was determined by the amount of root gall formation observed when compared to an untreated control. No gall formation was indicative of 100% nematode control. Gall formation equivalent to that found in the untreated control was indicative of 0% control. No nematode control rating was given to compounds showing significant phytotoxicity.

Row | Compound | phytotoxicity
1 | COc1ccc(Cl)c(S(=O)(=O)NC(=O)c2cn3cc(C(F)(F)F)ncc3n2)c1 [Compound 1, N-[(2-chloro-5-methoxyphenyl)sulfonyl]-6-(trifluoromethyl)imidazo[1,2-a]pyrazine-2-carboxamide] | no significant phytotoxicity
2 | O=C(NS(=O)(=O)c1cc(C(F)(F)F)ccc1Cl)c1cn2cc(Br)cnc2n1 [Compound 4, 6-bromo-N-[[2-chloro-5-(trifluoromethyl)phenyl]sulfonyl]imidazo[1,2-a]pyrimidine-2-carboxamide] | no significant phytotoxicity
3 | O=C(NS(=O)(=O)c1cc(C(F)(F)F)ccc1Cl)c1cn2cc(C(F)(F)F)cnc2n1 [Compound 6, N-[[2-chloro-5-(trifluoromethyl)phenyl]sulfonyl]-6-(trifluoromethyl)imidazo[1,2-a]pyrimidine-2-carboxamide] | no significant phytotoxicity
